Data: article PMC8981980 (Journal of medicinal chemistry, 2022)
Entries after “also recorded” stand apart in the source; their conditions may differ.

How the values were obtained:
CHD1L = target: T1, CHD1L (Homo sapiens, UniProt Q86WJ1); test: SAR summary from cat-CHD1L inhibition and cell-based assays; conditions: SAR statement relative to parent / 1-carbon analogs
T1 sequence (Q86WJ1 41-540 limits assumed): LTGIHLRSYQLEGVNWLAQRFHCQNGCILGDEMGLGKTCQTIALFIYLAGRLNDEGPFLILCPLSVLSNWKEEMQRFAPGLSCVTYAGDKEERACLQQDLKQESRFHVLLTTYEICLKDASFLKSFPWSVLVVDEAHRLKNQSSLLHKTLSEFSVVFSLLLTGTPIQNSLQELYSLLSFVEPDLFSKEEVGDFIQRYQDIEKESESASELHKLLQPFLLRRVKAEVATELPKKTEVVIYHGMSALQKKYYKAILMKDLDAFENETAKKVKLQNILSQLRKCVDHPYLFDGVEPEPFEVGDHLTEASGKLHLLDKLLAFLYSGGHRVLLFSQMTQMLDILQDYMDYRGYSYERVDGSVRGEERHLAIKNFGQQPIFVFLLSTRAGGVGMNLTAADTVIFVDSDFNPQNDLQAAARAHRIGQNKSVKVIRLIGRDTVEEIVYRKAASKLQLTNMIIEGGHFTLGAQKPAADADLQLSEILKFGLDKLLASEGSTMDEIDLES

SW620 tumor organoids = test: SW620 tumor organoid viability; assay type: cell-based; conditions: compared to 6.1, 6.2 and 6.3; SI Table S1
[1] = In vitro mouse microsomal stability; conditions: compared with 6.0 / other tested CHD1Li
[2] = cited from earlier work
CSC stemness = conditions: clonogenic colony formation assay; cited from earlier work
[3] = system: SW620 isolated M-Phenotype flank tumors; test: Xenograft antitumor efficacy study; assay type: in vivo, athymic nude mice
[4] = system: HCT116 M-Phenotype tumor organoids (VimPro-GFP / EcadPro-RFP); test: EMT dual-reporter 3D high-content imaging, HCT116 M-Phenotype tumor organoids; assay type: cell-based; conditions: as treatment dose increases

## Cc1cc(Nc2ccc(NC(=O)/C=C/c3c[nH]c4ccccc34)cc2)nc(N2CCCC2)n1 [6.8, (E)-3-(1H-indol-3-yl)-N-(4-((6-methyl-2-(pyrrolidin-1-yl)pyrimidin-4-yl)amino)phenyl) acrylamide]
CHD1L
  biological activity (cat-CHD1L inhibition and cell-based models): restores activity

## Cc1cc(Oc2ccc(NC(=O)Cc3cccs3)cc2)nc(Cl)n1 [6.12, N-(4-((2-chloro-6-methylpyrimidin-4-yl)oxy)phenyl)-2-(thiophen-2-yl)acetamide]
CHD1L
  biological activity (cat-CHD1L inhibition and cell-based models): significant loss of activity

## Cc1nc(N2CCCC2)nc(N(C)c2ccc(NC(=O)Cc3cccs3)cc2)c1F [6.3, N-(4-((5-fluoro-6-methyl-2-(pyrrolidin-1-yl)pyrimidin-4-yl)(methyl)amino)phenyl)-2-(thiophen-2-yl)acetamide]
CHD1L
  biological activity (cat-CHD1L inhibition and cell-based models): loss of inhibitor activity; also recorded: diminished biological activity

## Cc1cc(Nc2ccc(NC(=O)c3c[nH]c4ccccc34)cc2)nc(N2CCCC2)n1 [6.4, N-(4-((6-methyl-2-(pyrrolidin-1-yl)pyrimidin-4-yl)amino)phenyl)-1H-indole-3-carboxamide]
SW620 tumor organoids
  cell-based antitumor activity (potency): maintained potency
[1]
  metabolic stability to mouse liver microsomes: increased the metabolic stability

## Cc1cc(Oc2ccc(NC(=O)Cc3cccs3)cc2)nc(N2CCCC2)n1 [6.13, N-(4-((6-methyl-2-(pyrrolidin-1-yl)pyrimidin-4-yl)oxy)phenyl)-2-(thiophen-2-yl)acetamide]
CHD1L
  biological activity (cat-CHD1L inhibition and cell-based models): significant loss of activity

## O=C(Cc1cccs1)Nc1ccc(Nc2nc(N3CCCC3)ncc2F)cc1 [6.2, N-(4-((5-fluoro-2-(pyrrolidin-1-yl)pyrimidin-4-yl)amino)phenyl)-2-(thiophen-2-yl)acetamide]
CHD1L
  biological activity (cat-CHD1L inhibition and cell-based models): loss of inhibitor activity

## COc1cnc(N2CCCC2)nc1Nc1ccc(NC(=O)Cc2cccs2)cc1 [6.10, N-(4-((5-methoxy-2-(pyrrolidin-1-yl)pyrimidin-4-yl)amino)phenyl)-2-(thiophen-2-yl)acetamide]
CHD1L
  biological activity (cat-CHD1L inhibition and cell-based models): significant loss in activity

## Cc1cc(Nc2ccc(NC(=O)Cc3cccs3)cc2)nc(N2CCCC2)n1 [6.0, N-(4-((6-methyl-2-(pyrrolidine-1-yl)pyrimidin-4-yl)amino)phenyl)-2-(thiophen-2-yl)acetamide]
[2]; intraperitoneal (IP) daily over five days
  maximum tolerated dose: 50 mg/kg
[2]; mice, 50 mg/kg IP daily over five days
  liver toxicity: does not display any liver toxicity
CSC stemness
  CSC stemness: significantly inhibits CSC stemness

## Cc1cc(Oc2ccc(NC(=O)c3c[nH]c4ccccc34)cc2)nc(N2CCCC2)n1 [6.14, N-(4-((6-methyl-2-(pyrrolidin-1-yl)pyrimidin-4-yl)oxy)phenyl)-1H-indole-3-carboxamide]
CHD1L
  biological activity (cat-CHD1L inhibition and cell-based models): significant loss of activity

## Cc1cc(Nc2ccc(NC(=O)Cc3cc(Br)cs3)cc2)nc(N2CCCC2)n1 [6.11, 2-(4-bromothiophen-2-yl)-N-(4-((6-methyl-2-(pyrrolidin-1-yl)pyrimidin-4-yl)amino)phenyl) acetamide]
[3]; PO 75 mg/kg and 125 mg/kg 5-days/week over 30 days
  tolerability / gross toxicity: no adverse gross toxicity
[3]; PO 75 mg/kg and 125 mg/kg 5-days/week over 30 days, from day 20, highly significant after 28 days, vs vehicle
  tumor volume: significant decrease in tumor volume
[3]; during the treatment period, PO 28 days
  body weight: increased body weight
CHD1L
  biological activity (cat-CHD1L inhibition and cell-based models): most promising in vitro biological activity
[1]
  metabolic stability to mouse liver microsomes: most metabolically stable; also recorded: increased the metabolic stability

## Cc1cc(Nc2ccc(NC(=O)Cc3cccs3)cc2)nc(N2CCOCC2)n1 [6.15, N-(4-((6-methyl-2-morpholinopyrimidin-4-yl)amino)phenyl)-2-(thiophen-2-yl)acetamide]
CHD1L
  biological activity (cat-CHD1L inhibition and cell-based models): significant loss in biological activity

## Cc1cc(Nc2ccc(NC(=O)CCc3c[nH]c4ccccc34)cc2)nc(N2CCCC2)n1 [6.6, 3-(1H-indol-3-yl)-N-(4-((6-methyl-2-(pyrrolidin-1-yl)pyrimidin-4-yl)amino)phenyl) propanamide]
CHD1L
  biological activity (cat-CHD1L inhibition and cell-based models): loss of activity

## Cc1cc(Nc2ccc(NC(=O)Cc3cc(Cl)nc4ccccc34)cc2)nc(N2CCCC2)n1 [6.31]
[1]
  metabolic stability to mouse liver microsomes: increased the metabolic stability

## Cc1cc(Nc2ccc(NC(=O)Cc3c[nH]c4ccccc34)cc2)nc(N2CCCC2)n1 [6.5, 2-(1H-indol-3-yl)-N-(4-((6-methyl-2-(pyrrolidin-1-yl)pyrimidin-4-yl)amino)phenyl)acetamide]
[4]
  EcadPro-RFP promoter activity: upregulation
  VimPro-GFP promoter activity: marked downregulation
[1]
  metabolic stability to mouse liver microsomes: increased the metabolic stability

## Cc1cc(Nc2ccc(NC(=O)CCCc3c[nH]c4ccccc34)cc2)nc(N2CCCC2)n1 [6.7, 4-(1H-indol-3-yl)-N-(4-((6-methyl-2-(pyrrolidin-1-yl)pyrimidin-4-yl)amino)phenyl)butanamide]
CHD1L
  biological activity (cat-CHD1L inhibition and cell-based models): loss of activity

## Cc1nc(N2CCCC2)nc(Nc2ccc(NC(=O)Cc3cccs3)cc2)c1F [6.1, N-(4-((5-fluoro-6-methyl-2-(pyrrolidin-1-yl)pyrimidin-4-yl)amino)phenyl)-2-(thiophen-2-yl)acetamide]
CHD1L
  biological activity (cat-CHD1L inhibition and cell-based models): loss of inhibitor activity; also recorded: significant loss in activity
